# Data taken from ChEMBL document CHEMBL1154198, “Chemical genetics of Plasmodium falciparum” (Nature, 2010).
# Columns and labels:
# [1] = test system: Plasmodium falciparum; test: ST_JUDE: Plasmodium falciparum 3D7 EC50 (uM) as measured by SYBR green dye; format: functional, organism-based
# [2] = test system: Plasmodium falciparum; test: ST_JUDE: Plasmodium falciparum K1 EC50 (uM) as measured by SYBR green dye; format: functional, organism-based
SMILES,EC50 [1] [µM],EC50 [2] [µM]
CCOc1ccccc1C(=O)NCCc1csc(-c2ccc(OC)cc2)n1,> 15,7.53
CN1/C(=C/c2cccc[n+]2CCO)Sc2ccccc21,1.79,1.2
C=CC[n+]1c(C)n(N)c2ccccc21,> 15,> 15
C=CCOc1ccc(C(=O)Nc2nonc2-c2ccc(OC)c(OC)c2)cc1,0.591,0.689
CCOC(=O)C1=C(c2ccccc2)N=c2s/c(=C\c3cccc(O)c3)c(=O)n2C1c1cccc(OC)c1OC (centres undefined),3.26,2.18
CCCOc1cc(O)c(-c2[nH]nc(C)c2Oc2ccccc2)cc1CC,3.83,2.1
O=C(NCCc1ccncc1)Nc1ccc([N+](=O)[O-])cc1,> 15,> 15
COc1ccc(C2CC(=O)C3=C(C2)NC(=O)CC3c2ccc(SC)cc2)cc1OC (centres undefined),3.65,4.79
CN(C)CCN(C)C(=O)c1cccc(OC2CCN(Cc3ccccc3O)CC2)c1,4.8,5.14
CCN1CCN(Cc2c(O)ccc3c(=O)c(Oc4cc(C)cc(C)c4)c(C(F)(F)F)oc23)CC1,0.514,0.204
CCN(CC)CCNC(=O)c1cc2c(-c3cccc(OC)c3)nn(C)c2s1,4.04,> 15
CC(C)(C)c1ccc(O)c(CN2CCN(c3ccccc3)CC2)c1,1.1,0.51
Cc1ccc(-c2nc(-c3ccc(Cl)cc3)no2)cc1,> 15,> 15
COc1cc(Cl)c(C)cc1NC(=O)C1c2ccccc2C(=O)N(CC(C)C)C1c1cccs1 (centres undefined),0.166,0.226
COc1cc(-c2nc(-c3ccccc3)c(-c3ccccc3)[nH]2)cc(OC)c1OC,> 15,> 15
O=C(NC(c1ccc([N+](=O)[O-])cc1)c1cc(Cl)c2cccnc2c1O)c1cccnc1 (centres undefined),2.51,1.52
CCOc1cc(C2CC(=O)NC3=C2C(=O)CC(c2ccc(OC)c(OC)c2)C3)ccc1O (centres undefined),2.32,0.655
CCC(C)c1ccc(NC(=O)c2cc(Br)ccc2OC)c(O)c1 (centres undefined),6.05,2.11
CCCN1C(=O)c2[nH]nc(-c3c(C)cc(C)cc3O)c2C1c1cccc(OC)c1 (centres undefined),5.09,2.68
Cc1ccc(-c2n(C)c3ccccc3[n+]2C)cc1,11.9,> 15
Cc1c(C(=O)NCCCn2ccnc2)sc2nc(-c3cccc([N+](=O)[O-])c3)cn12,> 15,9.22

SMILES,EC50 [1] [µM],EC50 [2] [µM]
CCC[N+]12CCC(CC1)C(C(=O)c1cccs1)C2 (centres undefined),> 15,> 15
CC(C)N1CCN(Cc2ccc(C#CC(C)(C)O)cc2)CC1CCO (centres undefined),> 15,> 15
CCCCCN1CCN(c2nc3c(c(=O)[nH]c(=O)n3C)n2Cc2ccc(C)cc2)CC1,> 15,> 15
CN1CCN(Cc2c(O)ccc3c(=O)c(Oc4ccccc4Cl)c(C(F)(F)F)oc23)CC1,1.72,0.71
CCOC(=O)c1ccccc1NC(=S)N1CCCN(Cc2ccc(NC(C)=O)cc2)CC1,1.66,2.5
CCCCc1ccc(OCC(=O)N/N=C/c2cccc(OC)c2)cc1,> 15,> 15
CSc1cccc(NC(=O)C2c3ccccc3C(=O)N(CC(C)C)C2c2cccs2)c1 (centres undefined),0.13,0.2
CCCCN(CCCC)CC1OCc2ccccc2CO1,> 15,> 15
CC[N+](CC)(CC)CCCOC1CC(C)CCC1C(C)C (centres undefined),> 15,4.65
O=C(Nc1ccc(Cl)cc1C(O)c1ccccc1)c1cnn2c1NC(c1ccccc1)CC2C(F)(F)F (centres undefined),0.765,0.5
COc1ccc(C2C(C(=O)Nc3ccc(OC)cc3OC)c3ccccc3C(=O)N2C)cc1 (centres undefined),4.16,4.82
CCn1cc(CCCC(=O)NCc2ccc(OC)cc2)c2ccccc21,3.75,4.06
Cc1ccsc1CN(C(=O)COc1ccc(C(C)C)cc1)C1CCS(=O)(=O)C1 (centres undefined),> 15,> 15
Cc1ccnc(NC(c2ccccc2F)c2ccc3cccnc3c2O)c1 (centres undefined),1.86,1.5
COc1cc2nnc(/C=C/C(C)=O)c(-c3ccc(C)o3)c2cc1OC,> 15,> 15
Cc1cc(C)nc(/N=C(\N)Nc2ccc(Cl)cc2C(=O)c2ccccc2)n1,3.59,8.05
Cc1ccnc(NC(c2cccc(Cl)c2Cl)c2ccc3cccnc3c2O)c1 (centres undefined),1.5,1.67
CCOc1ccc(S(=O)(=O)NC2=C/C(=N\c3ccc(O)cc3)C(=O)c3ccccc32)cc1,1.25,1.03
Cc1cc(O)nc(-n2nc(C)cc2NC(=O)c2cc(C(F)(F)F)cc(C(F)(F)F)c2)n1,> 15,> 15
Oc1ccc(C(c2ccc(O)cc2)C(Cl)(Cl)Cl)cc1,3.95,3.6
CCOC(=O)N1CCN(C(=O)CN(Cc2ccc(Cl)cc2)S(=O)(=O)c2ccc(C)cc2)CC1,2.53,1.32

SMILES,EC50 [1] [µM],EC50 [2] [µM]
COC(=O)c1ccccc1NC(=O)c1ccc(Cn2cc(Cl)cn2)cc1,> 15,> 15
Cc1cccc(NC(c2ccc(Cl)cc2)c2ccc3cccnc3c2O)n1 (centres undefined),3.54,3.14
COc1cccc(OC)c1CN1CCC(C(Cc2ccccc2F)N(C)C(=O)c2cccs2)CC1 (centres undefined),7.28,4.22
COc1cc(Cl)c(NC(=O)c2cc3ccccc3cc2O)c(OC)c1,> 15,> 15
CCOC(=O)c1cnc2c(C)cccc2c1NCCCN1CCOCC1,0.647,1.43
COc1ccc(-c2nonc2NC(=O)c2ccc(C(C)(C)C)cc2)cc1OC,1.06,1.17
CCN1CCN(c2cc(C)c3cc(NC(=S)NCCCN4CC(C)CC(C)C4)ccc3n2)CC1 (centres undefined),5.34,> 15
O=C(Nc1ccc(Br)cc1)Nc1cccc(Cl)c1,> 15,5.49
O=C(C1CCCCC1)N(Cc1cccnc1)c1nc2c(Cl)cccc2s1,2.36,2.33
CC(C)(C)C(=O)Cn1ccc(=N)c2ccccc21,> 15,> 15
COc1cc(CNc2cccc(Cl)c2)cc(I)c1OC,3.96,4.1
CSCCCN1C(=O)CSC1c1cnccc1-c1ccc(Br)cc1 (centres undefined),1.21,1.17
COc1ccc(NC(=O)CSc2nc(-c3ccccc3Cl)ns2)c(OC)c1,5.43,4.59
CCOC(=O)C1=C(C)N=c2s/c(=C\c3ccc(O)cc3)c(=O)n2C1c1ccc(OC)c(OCC)c1 (centres undefined),0.77,> 15
COC(=O)c1c(S(=O)(=O)N2CCCCCC2)sc2c1CCN(Cc1ccc(F)c(OC)c1)C2,> 15,> 15
Cc1[nH]c2c(-c3ccc(Cl)cc3)cnn2c(=O)c1Cc1ccccc1,6.84,6.88
CCC1CCCCN1CCCNC(=O)c1ccc2c(c1)sc1nc(-c3ccc(F)cc3)cn12 (centres undefined),0.463,1.3
O=C(Nc1ccc(-c2nc3ccccc3[nH]2)cc1)[C@H](Cc1ccccc1)N1Cc2ccccc2C1=O,2.56,> 15
COc1ccc(OC)c2sc(N(Cc3cccnc3)C(=O)c3cccc(C)c3)nc12,> 15,2.33
COc1ccccc1-c1nnc(NC(=O)c2cccc(SC)c2)o1,> 15,> 15
